Experimental data reported in patent US12343337B2, “Compounds for increasing neural plasticity” (THE REGENTS OF THE UNIVERSITY OF CALIFORNIA, priority 2016, dated 2025).

How the values were obtained:
[1] = tested on: cultured embryonic rat cortical neurons; experiment: Neuritogenesis experiments (Sholl analysis) in cortical cultures; format: cell-based; settings: for promoting neuritogenesis: cultured embryonic rat cortical neurons, DIV6, 10 μM (0.1% DMSO) unless noted otherwise, 72 h treatment, FIGS. 1B-1D, 2B-2D
Experimental: (§1) Primary cortical cultures were prepared using tissue from embryonic day 18 (E18) Sprague Dawley rats. Cells were plated at various densities on poly-D-lysine coated plates depending on the specific experiment (vide infra). Plating media consisted of 10% heat-inactivated FBS (Life Technologies), 1% penicillin-streptomycin (Life Technologies), and 0.5 mM glutamine (Life Technologies) in Neurobasal (Life Technologies). After 15-24 h, the media was removed and exchanged for replacement media containing 1×B27 supplement (Life Technologies), 1% penicillin-streptomycin, 0.5 mM glutamine, 12.5 μM glutamate, and Neurobasal. After 96 h, 50% of the media was removed and replaced with feed media containing 1×B27 supplement, 1% penicillin-streptomycin, and 0.5 mM glutamine. Once per week until the cultures had reached sufficient maturity for experiments, 50% of the culture media was removed and replaced with feed media, with an additional 20% by volume being added to account for evaporation. For experiments using antagonists/inhibitors, cells were pretreated with ANA-12 (10 μM), rapamycin (100 nM), and ketanserin (100 μM) for 10 min prior to the addition of test compounds. The final DMSO concentration of these experiments was 0.2%. The neurons used in each cellular experiment were taken from at least two different treatment wells and the wells were randomized to account for plate effects. All of the cellular experiments were replicated on at least two occasions by two or more experimenters.
All compounds were dissolved in DMSO and diluted 1:1000 with the exception that BDNF was dissolved in water. Cells were treated with the compound at a final concentration of 90 μM (0.1% DMSO) while all other compounds were treated at 10 μM (0.1% DMSO) unless noted otherwise. For in vivo studies, the compound was dissolved in sterile 0.9% saline and administered intraperitoneally at a dose of 10 mg/kg and an injection volume of 10 mL/kg.
After 3 days in vitro (DIV 3), approximately 50,000 cells/well in poly-D-lysine coated 24 well plates were treated. Treatment was accomplished by first diluting DMSO stock solutions of compounds 1:10 in Neurobasal followed by a 1:100 dilution into each well (total dilution=1:1000). After 72 h, cells were fixed by removing 80% of the media and replacing it with a volume of 4% aqueous paraformaldehyde (Alfa Aesar) equal to 50% of the working volume of the well. Then, the cells were allowed to sit for 20 min at room temperature before the fixative was aspirated and each well washed twice with DPBS. Cells were permeabilized using 0.2% Triton X-100 (ThermoFisher) in DPBS for 20 minutes at room temperature without shaking. Plates were blocked with antibody diluting buffer (ADB) containing 2% bovine serum albumin (BSA) in DPBS for 1 h at room temperature. Then, plates were incubated overnight at 4° C. with gentle shaking in ADB and a chicken anti-MAP2 antibody (1:10,000; EnCor, CPCA-MAP2). The next day, plates were washed three times with DPBS and once with 2% ADB in DPBS. Plates were incubated for 1 h at room temperature in ADB containing an anti-chicken IgG secondary antibody conjugated to Alexa Fluor 488 (Life Technologies, 1:500) and washed five times with DPBS. After the final wash, 500 μL of DPBS was added per well and imaged on a Leica inverted epifluorescence microscope at 40× magnification. Images were analyzed using the Simple Neurite Tracer and Sholl analysis plug-ins for ImageJ Fiji (version 1.51N). All images were taken and analyzed by an experimenter blinded to treatment conditions.

BDNF = BDNF ELISA assay in cortical neurons; format: cell-based, rat
Experimental: as §1
Cortical cultures were grown in 6-well plates (600,000 cells per well). At DIV 17-18, all media was removed and replaced with fresh Neurobasal. After 4 h, each well was treated with compound dissolved in DMSO (1:1000) for 24 h. After the treatment period, the media was removed and the cells washed once with ice-cold DPBS. To each well was added 200 μL of Cell Extraction Buffer (Life Technologies) supplemented with cOmplete and PhoSTOP inhibitors, and incubated on ice for 5-10 min. Plates were scrapped and the contents collected. […]

[2] = tested on: cultured embryonic rat cortical neurons; experiment: Spinogenesis experiments (spine density) in cortical cultures; format: cell-based; settings: cortical cultures treated for 24 h at DIV 18; FIG. 1E and FIG. 2E
Experimental: as §1, with “The final DMSO concentration of these experiments was 0.2%. The neurons used in each cellular experiment were taken from at least two different treatment wells and the wells were randomized to account for plate effects. All of the cellular experiments were replicated on at least two occasions by two or more experimenters.” left out
Cells were plated at a density of 35,000 cells/well on glass coverslips in 24 well plates. […] Dendritic spines were counted manually by a trained experimenter who was blinded to the treatment conditions.

Row | Molecule | promoting neuritogenesis [1] | spinogenesis in cortical cultures [2] | further results
1 | CN(C)CCc1c[nH]c2cc(F)ccc12 [6-fluoro-DMT, 6-fluoro-N,N-dimethyltryptamine] | capable of robustly promoting neuritogenesis |  | 
2 | COc1ccc2c(CCN(C)C)c[nH]c2c1 [6-methoxy-DMT, 6-methoxy-N,N-dimethyltryptamine] | capable of robustly promoting neuritogenesis |  | 
3 | CCN(CC)C(=O)N[C@H]1C=C2c3cccc4[nH]cc(c34)C[C@H]2N(C)C1 [lisuride, Lisuride] | capable of robustly promoting neuritogenesis | increased spinogenesis | BDNF protein levels in the presence of TrkB antagonist ANA-12 (BDNF; cortical cultures, 24 h treatment, with ANA-12, FIG. 6): negates the increase in BDNF protein levels; protein levels of BDNF protein (BDNF; cortical neurons, after 24 hours treatment, ELISA, FIG. 5): increased the protein levels of BDNF protein; translation of BDNF on co-treatment with sigma antagonist BD1063 (BDNF; cultured cortical neurons co-treated with BD1063, 24 hour treatment, FIG. 7): completely blocked the increased translation of BDNF; dose-response of effects on neurite outgrowth ([1]; cortical cultures, dose response was not clearly observed, FIGS. 3A and 3B): exhibiting activity across 8-orders of magnitude into the femtomolar range
4 | CN(C)CCc1c[nH]c2ccc(Cn3cncn3)cc12 [rizatriptan, Rizatriptan] | capable of robustly promoting neuritogenesis | increased spinogenesis | 
5 | BDNF: brain-derived neurotrophic factor, recombinant neurotrophin, Sigma-Aldrich (protein, UniProt P23560 19-247, looked up) Neurotrophic factor BDNF …: APMKEANIRGQGGLAYPGVRTHGTLESVNGPKAGSRGLTSLADTFEHVIEELLDEDQKVRPNEENNKDADLYTSRVMLSSQVPLEPPLLFLLEEYKNYLDAANMSMRVRRHSDPARRGELSVCDSISEWVTAADKKTAVDMSGGTVTVLEKVPVSKGQLKQYFYETKCNPMGYTKEGCRGIDKRHWNSQCRTTQSYVRALTMDSKKRIGWRFIRIDTSCVCTLTIKRGR |  |  | dose response of effects on dendritic arbor complexity ([1]; recombinant BDNF 50 ng/mL vs 100-fold dilution, FIG. 4): significantly less potent following a 100-fold dilution
